Oligonucleotides are given in HELM: sugar(base)linkage, 5' to 3'; d 2'-deoxyribose, r ribose, m 2'-O-methylribose, p phosphate. ss, as = sense and antisense strand

Results on 20 substances are retold here after the OligoGym collection.
Note: test concentration or dose not given here.

This data set has as its target UBE2D3. Briefly: reporter assay of Huesken 2005. The following applies: siRNA. In general terms: Reporter assays use an easily measured gene product as a stand-in for the process of interest.
The substance “RNA1{r(G)p.r(A)p.r(C)p.r(A)p.r(A)p.r(U)p.r(U)p.r(C)p.r(A)p.r(U)p.r(U)p.r(U)p.r(U)p.r(C)p.r(C)p.r(U)p.r(A)p.r(C)p.r(A)p.d(T)p.d(T)}|RNA2{r(U)p.r(G)p.r(U)p.r(A)p.r(G)p.r(G)p.r(A)p.r(A)p.r(A)p.r(A)p.r(U)p.r(G)p.r(A)p.r(A)p.r(U)p.r(U)p.r(G)p.r(U)p.r(C)p.d(A)p.d(A)}$$$RNA1{StrandType:ss}|RNA2{StrandType:as}$” had a normalised inhibition (eCFP-eYFP dual reporter) of 92.3%.

As for “RNA1{r(A)p.r(G)p.r(G)p.r(U)p.r(U)p.r(G)p.r(C)p.r(A)p.r(U)p.r(U)p.r(U)p.r(A)p.r(C)p.r(A)p.r(A)p.r(C)p.r(A)p.r(A)p.r(G)p.d(T)p.d(T)}|RNA2{r(C)p.r(U)p.r(U)p.r(G)p.r(U)p.r(U)p.r(G)p.r(U)p.r(A)p.r(A)p.r(A)p.r(U)p.r(G)p.r(C)p.r(A)p.r(A)p.r(C)p.r(C)p.r(U)p.d(T)p.d(A)}$$$RNA1{StrandType:ss}|RNA2{StrandType:as}$”, the normalised inhibition (eCFP-eYFP dual reporter) came to 86.6%.

“RNA1{r(U)p.r(U)p.r(A)p.r(U)p.r(C)p.r(C)p.r(A)p.r(U)p.r(U)p.r(U)p.r(G)p.r(U)p.r(U)p.r(C)p.r(A)p.r(C)p.r(U)p.r(G)p.r(C)p.d(T)p.d(T)}|RNA2{r(G)p.r(C)p.r(A)p.r(G)p.r(U)p.r(G)p.r(A)p.r(A)p.r(C)p.r(A)p.r(A)p.r(A)p.r(U)p.r(G)p.r(G)p.r(A)p.r(U)p.r(A)p.r(A)p.d(A)p.d(A)}$$$RNA1{StrandType:ss}|RNA2{StrandType:as}$” had a normalised inhibition (eCFP-eYFP dual reporter) of 23.6%. The same measure for “RNA1{r(G)p.r(C)p.r(A)p.r(C)p.r(A)p.r(A)p.r(U)p.r(G)p.r(U)p.r(U)p.r(C)p.r(U)p.r(G)p.r(C)p.r(A)p.r(G)p.r(G)p.r(U)p.r(C)p.d(T)p.d(T)}|RNA2{r(G)p.r(A)p.r(C)p.r(C)p.r(U)p.r(G)p.r(C)p.r(A)p.r(G)p.r(A)p.r(A)p.r(C)p.r(A)p.r(U)p.r(U)p.r(G)p.r(U)p.r(G)p.r(C)p.d(T)p.d(G)}$$$RNA1{StrandType:ss}|RNA2{StrandType:as}$”: 100%. For “RNA1{r(A)p.r(U)p.r(C)p.r(A)p.r(U)p.r(C)p.r(C)p.r(A)p.r(A)p.r(A)p.r(U)p.r(A)p.r(U)p.r(U)p.r(A)p.r(A)p.r(C)p.r(A)p.r(G)p.d(T)p.d(T)}|RNA2{r(C)p.r(U)p.r(G)p.r(U)p.r(U)p.r(A)p.r(A)p.r(U)p.r(A)p.r(U)p.r(U)p.r(U)p.r(G)p.r(G)p.r(A)p.r(U)p.r(G)p.r(A)p.r(U)p.d(A)p.d(A)}$$$RNA1{StrandType:ss}|RNA2{StrandType:as}$” the value was 32%; for “RNA1{r(G)p.r(U)p.r(G)p.r(G)p.r(U)p.r(C)p.r(G)p.r(C)p.r(C)p.r(U)p.r(G)p.r(C)p.r(U)p.r(U)p.r(U)p.r(A)p.r(A)p.r(C)p.r(A)p.d(T)p.d(T)}|RNA2{r(U)p.r(G)p.r(U)p.r(U)p.r(A)p.r(A)p.r(A)p.r(G)p.r(C)p.r(A)p.r(G)p.r(G)p.r(C)p.r(G)p.r(A)p.r(C)p.r(C)p.r(A)p.r(C)p.d(T)p.d(G)}$$$RNA1{StrandType:ss}|RNA2{StrandType:as}$”, 100%; for “RNA1{r(C)p.r(C)p.r(U)p.r(A)p.r(G)p.r(U)p.r(G)p.r(C)p.r(C)p.r(A)p.r(G)p.r(A)p.r(G)p.r(A)p.r(U)p.r(U)p.r(G)p.r(C)p.r(A)p.d(T)p.d(T)}|RNA2{r(U)p.r(G)p.r(C)p.r(A)p.r(A)p.r(U)p.r(C)p.r(U)p.r(C)p.r(U)p.r(G)p.r(G)p.r(C)p.r(A)p.r(C)p.r(U)p.r(A)p.r(G)p.r(G)p.d(G)p.d(G)}$$$RNA1{StrandType:ss}|RNA2{StrandType:as}$”, 86.2%. The same measure for “RNA1{r(G)p.r(C)p.r(A)p.r(A)p.r(G)p.r(C)p.r(C)p.r(A)p.r(C)p.r(A)p.r(A)p.r(U)p.r(U)p.r(A)p.r(U)p.r(G)p.r(G)p.r(G)p.r(A)p.d(T)p.d(T)}|RNA2{r(U)p.r(C)p.r(C)p.r(C)p.r(A)p.r(U)p.r(A)p.r(A)p.r(U)p.r(U)p.r(G)p.r(U)p.r(G)p.r(G)p.r(C)p.r(U)p.r(U)p.r(G)p.r(C)p.d(C)p.d(A)}$$$RNA1{StrandType:ss}|RNA2{StrandType:as}$”: 75.8%; for “RNA1{r(U)p.r(G)p.r(G)p.r(G)p.r(A)p.r(C)p.r(C)p.r(U)p.r(A)p.r(A)p.r(U)p.r(G)p.r(A)p.r(C)p.r(A)p.r(G)p.r(C)p.r(C)p.r(C)p.d(T)p.d(T)}|RNA2{r(G)p.r(G)p.r(G)p.r(C)p.r(U)p.r(G)p.r(U)p.r(C)p.r(A)p.r(U)p.r(U)p.r(A)p.r(G)p.r(G)p.r(U)p.r(C)p.r(C)p.r(C)p.r(A)p.d(T)p.d(A)}$$$RNA1{StrandType:ss}|RNA2{StrandType:as}$”: 48.6%. In turn, “RNA1{r(U)p.r(G)p.r(G)p.r(C)p.r(A)p.r(G)p.r(C)p.r(A)p.r(U)p.r(U)p.r(U)p.r(G)p.r(U)p.r(C)p.r(U)p.r(C)p.r(G)p.r(A)p.r(U)p.d(T)p.d(T)}|RNA2{r(A)p.r(U)p.r(C)p.r(G)p.r(A)p.r(G)p.r(A)p.r(C)p.r(A)p.r(A)p.r(A)p.r(U)p.r(G)p.r(C)p.r(U)p.r(G)p.r(C)p.r(C)p.r(A)p.d(T)p.d(T)}$$$RNA1{StrandType:ss}|RNA2{StrandType:as}$” registered a normalised inhibition (eCFP-eYFP dual reporter) of 99.6%. The substance “RNA1{r(U)p.r(C)p.r(U)p.r(C)p.r(G)p.r(A)p.r(U)p.r(A)p.r(U)p.r(U)p.r(C)p.r(U)p.r(A)p.r(A)p.r(G)p.r(A)p.r(U)p.r(C)p.r(A)p.d(T)p.d(T)}|RNA2{r(U)p.r(G)p.r(A)p.r(U)p.r(C)p.r(U)p.r(U)p.r(A)p.r(G)p.r(A)p.r(A)p.r(U)p.r(A)p.r(U)p.r(C)p.r(G)p.r(A)p.r(G)p.r(A)p.d(C)p.d(A)}$$$RNA1{StrandType:ss}|RNA2{StrandType:as}$” came in with a normalised inhibition (eCFP-eYFP dual reporter) of 98.1%. For “RNA1{r(A)p.r(U)p.r(U)p.r(U)p.r(A)p.r(C)p.r(A)p.r(A)p.r(C)p.r(A)p.r(A)p.r(G)p.r(A)p.r(A)p.r(U)p.r(U)p.r(U)p.r(A)p.r(U)p.d(T)p.d(T)}|RNA2{r(A)p.r(U)p.r(A)p.r(A)p.r(A)p.r(U)p.r(U)p.r(C)p.r(U)p.r(U)p.r(G)p.r(U)p.r(U)p.r(G)p.r(U)p.r(A)p.r(A)p.r(A)p.r(U)p.d(G)p.d(C)}$$$RNA1{StrandType:ss}|RNA2{StrandType:as}$” the value was 74.4%; for “RNA1{r(A)p.r(A)p.r(U)p.r(G)p.r(A)p.r(C)p.r(A)p.r(G)p.r(C)p.r(C)p.r(C)p.r(A)p.r(U)p.r(A)p.r(U)p.r(C)p.r(A)p.r(A)p.r(G)p.d(T)p.d(T)}|RNA2{r(C)p.r(U)p.r(U)p.r(G)p.r(A)p.r(U)p.r(A)p.r(U)p.r(G)p.r(G)p.r(G)p.r(C)p.r(U)p.r(G)p.r(U)p.r(C)p.r(A)p.r(U)p.r(U)p.d(A)p.d(G)}$$$RNA1{StrandType:ss}|RNA2{StrandType:as}$”, 80%; for “RNA1{r(C)p.r(A)p.r(U)p.r(U)p.r(G)p.r(G)p.r(C)p.r(A)p.r(A)p.r(G)p.r(C)p.r(C)p.r(A)p.r(C)p.r(A)p.r(A)p.r(U)p.r(U)p.r(A)p.d(T)p.d(T)}|RNA2{r(U)p.r(A)p.r(A)p.r(U)p.r(U)p.r(G)p.r(U)p.r(G)p.r(G)p.r(C)p.r(U)p.r(U)p.r(G)p.r(C)p.r(C)p.r(A)p.r(A)p.r(U)p.r(G)p.d(A)p.d(A)}$$$RNA1{StrandType:ss}|RNA2{StrandType:as}$”, 100%. The same measure for “RNA1{r(C)p.r(A)p.r(G)p.r(C)p.r(A)p.r(C)p.r(A)p.r(A)p.r(U)p.r(G)p.r(U)p.r(U)p.r(C)p.r(U)p.r(G)p.r(C)p.r(A)p.r(G)p.r(G)p.d(T)p.d(T)}|RNA2{r(C)p.r(C)p.r(U)p.r(G)p.r(C)p.r(A)p.r(G)p.r(A)p.r(A)p.r(C)p.r(A)p.r(U)p.r(U)p.r(G)p.r(U)p.r(G)p.r(C)p.r(U)p.r(G)p.d(G)p.d(A)}$$$RNA1{StrandType:ss}|RNA2{StrandType:as}$”: 87.8%. “RNA1{r(C)p.r(C)p.r(A)p.r(U)p.r(U)p.r(U)p.r(G)p.r(U)p.r(U)p.r(C)p.r(A)p.r(C)p.r(U)p.r(G)p.r(C)p.r(U)p.r(A)p.r(U)p.r(G)p.d(T)p.d(T)}|RNA2{r(C)p.r(A)p.r(U)p.r(A)p.r(G)p.r(C)p.r(A)p.r(G)p.r(U)p.r(G)p.r(A)p.r(A)p.r(C)p.r(A)p.r(A)p.r(A)p.r(U)p.r(G)p.r(G)p.d(A)p.d(T)}$$$RNA1{StrandType:ss}|RNA2{StrandType:as}$” had a normalised inhibition (eCFP-eYFP dual reporter) of 94.5%. For the substance “RNA1{r(U)p.r(C)p.r(C)p.r(A)p.r(U)p.r(U)p.r(U)p.r(G)p.r(U)p.r(U)p.r(C)p.r(A)p.r(C)p.r(U)p.r(G)p.r(C)p.r(U)p.r(A)p.r(U)p.d(T)p.d(T)}|RNA2{r(A)p.r(U)p.r(A)p.r(G)p.r(C)p.r(A)p.r(G)p.r(U)p.r(G)p.r(A)p.r(A)p.r(C)p.r(A)p.r(A)p.r(A)p.r(U)p.r(G)p.r(G)p.r(A)p.d(T)p.d(A)}$$$RNA1{StrandType:ss}|RNA2{StrandType:as}$”, the normalised inhibition (eCFP-eYFP dual reporter) amounted to 98.4%.

In turn, “RNA1{r(A)p.r(U)p.r(C)p.r(C)p.r(A)p.r(U)p.r(U)p.r(U)p.r(G)p.r(U)p.r(U)p.r(C)p.r(A)p.r(C)p.r(U)p.r(G)p.r(C)p.r(U)p.r(A)p.d(T)p.d(T)}|RNA2{r(U)p.r(A)p.r(G)p.r(C)p.r(A)p.r(G)p.r(U)p.r(G)p.r(A)p.r(A)p.r(C)p.r(A)p.r(A)p.r(A)p.r(U)p.r(G)p.r(G)p.r(A)p.r(U)p.d(A)p.d(A)}$$$RNA1{StrandType:ss}|RNA2{StrandType:as}$” showed a normalised inhibition (eCFP-eYFP dual reporter) of 96.1%. For “RNA1{r(A)p.r(U)p.r(U)p.r(A)p.r(U)p.r(G)p.r(G)p.r(G)p.r(A)p.r(C)p.r(C)p.r(U)p.r(A)p.r(A)p.r(U)p.r(G)p.r(A)p.r(C)p.r(A)p.d(T)p.d(T)}|RNA2{r(U)p.r(G)p.r(U)p.r(C)p.r(A)p.r(U)p.r(U)p.r(A)p.r(G)p.r(G)p.r(U)p.r(C)p.r(C)p.r(C)p.r(A)p.r(U)p.r(A)p.r(A)p.r(U)p.d(T)p.d(G)}$$$RNA1{StrandType:ss}|RNA2{StrandType:as}$” the value was 64.1%; for “RNA1{r(C)p.r(C)p.r(U)p.r(A)p.r(C)p.r(A)p.r(G)p.r(A)p.r(C)p.r(U)p.r(A)p.r(C)p.r(C)p.r(C)p.r(C)p.r(U)p.r(U)p.r(C)p.r(A)p.d(T)p.d(T)}|RNA2{r(U)p.r(G)p.r(A)p.r(A)p.r(G)p.r(G)p.r(G)p.r(G)p.r(U)p.r(A)p.r(G)p.r(U)p.r(C)p.r(U)p.r(G)p.r(U)p.r(A)p.r(G)p.r(G)p.d(A)p.d(A)}$$$RNA1{StrandType:ss}|RNA2{StrandType:as}$”, 99.9%.
